Measured values published in ChEMBL document CHEMBL2396561 (J Med Chem, 2013).
In brackets after ≈: the same amount, converted by molar mass.

What was measured:
[1] = Cytotoxicity against mouse Neuro2a cells assessed as cell survival after 72 hrs by CellTiter-96 aqueous one solution assay; type: cell-based, N2a; details: read-out: LC50
[2] = Cytotoxicity against human 786-O cells assessed as cell survival after 72 hrs by CellTiter-96 aqueous one solution assay; type: cell-based, 786-0; details: read-out: LC50
[3] = target: T1, Enoyl-[acyl-carrier-protein] reductase [NADH] (Francisella tularensis subsp. tularensis (strain SCHU S4 / Schu 4), UniProt Q5NGQ3)
T1 sequence (Q5NGQ3 whole entry): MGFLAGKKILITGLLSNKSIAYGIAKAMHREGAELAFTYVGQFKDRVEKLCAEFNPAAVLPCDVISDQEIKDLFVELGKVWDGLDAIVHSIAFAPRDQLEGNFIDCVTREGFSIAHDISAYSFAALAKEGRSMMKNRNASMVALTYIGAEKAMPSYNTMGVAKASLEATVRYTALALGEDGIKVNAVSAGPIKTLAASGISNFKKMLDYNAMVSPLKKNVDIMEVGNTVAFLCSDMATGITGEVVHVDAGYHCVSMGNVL

[4] = target: T1, Enoyl-[acyl-carrier-protein] reductase [NADH]; remark: listed apart in the source
Staphylococcus aureus = assay: Antibacterial activity against Staphylococcus aureus ATCC 29213 expressing FabI assessed as growth inhibition after 18 to 24 hrs by microdilution method; type: functional
Pseudomonas aeruginosa = assay: Antibacterial activity against Pseudomonas aeruginosa ATCC 27853 expressing FabI, FabV, FabK assessed as growth inhibition after 18 to 24 hrs by microdilution method; type: functional
Escherichia coli = assay: Antibacterial activity against Escherichia coli ATCC 25922 expressing FabI assessed as growth inhibition after 18 to 24 hrs by microdilution method; type: functional
Bacillus anthracis = assay: Antibacterial activity against Bacillus anthracis Ames expressing FabI assessed as growth inhibition after 18 to 24 hrs by microdilution method; type: functional
[5] = tested on: Francisella tularensis subsp. tularensis SCHU S4; assay: Antibacterial activity against Francisella tularensis SCHU S4 expressing FabI assessed as growth inhibition after 42 to 48 hrs by microdilution method; type: functional
[6] = target: T1, Enoyl-[acyl-carrier-protein] reductase [NADH]; remark: listed apart in the source
[7] = Solubility of the compound in DMSO at 125 uM; type: physicochemical

## Oc1cc(Cl)ccc1Oc1ccc(Cl)cc1Cl [TRICLOSAN]
[1]
  CC50 at 72 h: 5.4 µM
[2]
  CC50 at 72 h: 4.2 µM
[3]
  IC50: 1.3 µM

## CN(Cc1ccccc1N)C(=O)c1cc2ccccc2o1
[4]
  IC50: 45 µM

## O=C(CC1CCCCC1)N1CCC(c2nc(-c3ccc(S(=O)(=O)N4CCCC4)cc3)no2)CC1
Staphylococcus aureus
  MIC: > 52 µg/mL
Pseudomonas aeruginosa
  MIC: > 52 µg/mL
Escherichia coli
  MIC: > 52 µg/mL
Bacillus anthracis
  MIC: > 26 µg/mL
[5]
  MIC: > 52 µg/mL
[1]
  CC50 at 72 h: 8 µM
[2]
  CC50 at 72 h: 7 µM
[6]
  Ki: 7 µM
[3]
  IC50: 8 µM

## O=c1oc2ccccc2c(O)c1Cc1c(O)c2ccccc2oc1=O [DICUMAROL]
[4]
  IC50: 47 µM

## CN(Cc1ccc(C(C)(C)C)cc1)Cc1cccc2ccccc12 [BUTENAFINE]
[4]
  IC50: 76 µM

## O=C(COc1ccccc1)NCCSc1c[nH]c2ccccc12
[7]
  solubility: soluble
Staphylococcus aureus
  MIC: 86 µg/mL (≈ 263 µM)
Pseudomonas aeruginosa
  MIC: > 343 µg/mL
Escherichia coli
  MIC: > 343 µg/mL
Bacillus anthracis
  MIC: 43 µg/mL (≈ 132 µM)
[5]
  MIC: 67 µM
[1]
  CC50 at 72 h: 30 µM
[2]
  CC50 at 72 h: 30 µM
[6]
  Ki: 3.4 µM
[3]
  IC50: 20 µM

## O=C(O)c1cn(C2CC2)c2cc(N3CCNCC3)c(F)cc2c1=O [CIPROFLOXACIN]
Staphylococcus aureus
  MIC: 2 µg/mL (≈ 6.04 µM)
Pseudomonas aeruginosa
  MIC: 1 µg/mL (≈ 3.02 µM)
Escherichia coli
  MIC: 0.0312 µg/mL (≈ 0.0943 µM)
Bacillus anthracis
  MIC: 0.0312 µg/mL (≈ 0.0943 µM)
[5]
  MIC: 0.125 µg/mL

## NC(=O)c1ccc(Oc2ccccc2O)c(F)c1
[4]
  IC50: 6 µM

## N#Cc1ccc(Oc2ccccc2O)c(F)c1
[4]
  IC50: 11 µM

## O=C(C(=O)N1CC=C(c2ccccc2)CC1)c1c[nH]c2ccccc12
Staphylococcus aureus
  MIC: > 413 µg/mL
Pseudomonas aeruginosa
  MIC: > 413 µg/mL
Escherichia coli
  MIC: > 413 µg/mL
Bacillus anthracis
  MIC: > 208 µg/mL
[5]
  MIC: 39 µM
[1]
  CC50 at 72 h: 70 µM
[2]
  CC50 at 72 h: 63 µM
[4]
  IC50: 12 µM
[3]
  IC50: 3 µM

## CCc1ccc(CCOc2ccc(CC3SC(=O)NC3=O)cc2)nc1 (stereo not drawn) [PIOGLITAZONE]
[4]
  IC50: 79 µM

## Nc1ccn([C@@H]2O[C@H](CO)[C@@H](O)[C@@H]2O)c(=O)n1 [CYTARABINE]
[4]
  IC50: 59 µM
